Bridge positions count the residues as written; N and C are the ends.
Experiments:
[1] = cited from earlier work; for side effects / weight loss effect: background statement on marketed anti-obesity drugs
tyrosinase [2] = experiment: Melanogenic enzyme protein level by western blot: tyrosinase; type: cell-based, mouse; conditions: B16F10 cells, 6-hour treatment and 24-hour treatment
Description: Melanocytes (B16F10 cell line) were incubated on 6-well culture plates in an incubator for 24 hours, and were treated with the peptide of the present invention with different concentrations. […] The test was conducted using an anti-tyrosinase antibody (Santa Cruz Biotechnology, USA).

perilipin = experiment: Adipogenesis-related gene expression by RT-PCR: perilipin; type: cell-based; conditions: 3T3-L1 cells with differentiation inducing material, incubation for 7 days
Description: (§1) Pre-adipocytes (3T3-L1 cell line) were incubated on 6-well plates for 48 hours, and then treated with the present peptide with different concentrations together with a differentiation composition (0.5 mM IBMX, […], […]), followed by incubation for 7 days. After the incubation, PT-PCR was conducted using primers specific to perilipin and PPARγ, which are genes involved in the adipogenesis mechanism. It was investigated whether the mRNA values of perilipin and PPARγ were inhibited.
(§2) Target-specific primer sequences used in PCR for enzymes involved in adipogenesis were as follows: perilipin forward primer sequence, 5′-[…]-3′ and perilipin reverse primer sequence, 5′-[…]-3′ (annealing temperature, 60° C.); PPARγ forward primer sequence, 5′-[…]-3′ and PPARγ reverse primer sequence, 5′-[…]-3′ (annealing temperature, 60° C.)

TRP1 = experiment: Melanogenic enzyme gene level by RT-PCR: TRP1; type: cell-based, mouse; conditions: B16F10 cells, 6-hour treatment and 24-hour treatment
Description: (§3) Melanocytes (B16F10 cell line) were incubated on 6-well culture plates in an incubator for 24 hours, and were treated with the peptides of the present invention with different concentrations. After the incubation for hours, the cells were taken off, and then, the increases in the expressions of tyrosinase and TRP1, which are enzymes involved in melanogenesis, were observed by RT-PCR using primers specific thereto.
(§4) Target-specific primer sequences used in PCR for enzymes involved in melanogenesis were as follows: Tyrosinase forward primer sequence, 5′-[…]-3′ and tyrosinase reverse primer sequence, 5′-[…]-3′ (annealing temperature, 51° C.); TRP1 forward primer sequence, 5′-[…]-3′ and TRP1 reverse primer sequence, 5′-[…]-3′ (annealing temperature, 60° C.)

tyrosinase [3] = experiment: Melanogenic enzyme gene level by RT-PCR: tyrosinase; type: cell-based, mouse; conditions: B16F10 cells, 6-hour treatment and 24-hour treatment
Description: as §3, §4

CREB = experiment: Melanogenesis signaling molecules by western blot: CREB phosphorylation; type: cell-based, mouse; conditions: B16F10 cells, observed over time (6 to 24 hours)
Description: (§5) Melanocytes (B16F10 cell line) were incubated on 6-well culture plates in an incubator for 24 hours, and were treated with the peptide of the present invention with different concentrations. After the cells were incubated for from 6 to 24 hours, the cells were dissolved, and then the CREB phosphorylation and MITF expression, which are signaling molecules involved in melanogenesis, were observed by western blot assay using antibodies specific thereto. The test was carried out using anti-pCREB antibody (Santa Cruz Biotechnology, USA) and anti-MITF antibody (Santa Cruz Biotechnology, USA).

MITF = experiment: Melanogenesis signaling molecules by western blot: MITF; type: cell-based, mouse; conditions: B16F10 cells, observed over time (6 to 24 hours)
Description: as §5, with “[…],” for “and then the CREB phosphorylation and MITF expression,”

PPARγ = experiment: Adipogenesis-related gene expression by RT-PCR: PPARγ; type: cell-based; conditions: 3T3-L1 cells with differentiation inducing material, incubation for 7 days
Description: as §1, §2

[4] = tested on: Pre-adipocytes (3T3-L1 cell line); experiment: Measurement of triglyceride amount in differentiating pre-adipocytes; type: cell-based; conditions: 3T3-L1 cells with differentiation inducing material, incubation for 7 days, absorbance 540 nm
Description: Pre-adipocytes (3T3-L1 cell line) were incubated on 24-well plates for 48 hours, and then treated with the peptide of the present invention with different concentrations together with a differentiation composition (0.5 mM IBMX, […], […]), followed by incubation for 7 days. The cells were taken off, and then put in a dissolution buffer (50 mM Tris, 150 mM NaCl, 1% Triton X-100, proteolytic enzyme inhibitor), and kept in ice for 30 minutes. After centrifugation at 14,000 g for 10 minutes, the supernatant containing an oil layer was collected, and a triglyceride reagent was added thereto, followed by reaction in an incubator at 37° C. for 5 minutes. The absorbance was measured at 540 nm to determine the amount of triglycerides.

Compound | side effects [1] | weight loss effect [1] | expression of tyrosinase protein (tyrosinase [2]) | gene expression of perilipin (perilipin) | expression of TRP1 gene (TRP1) | expression of tyrosinase gene (tyrosinase [3]) | phosphorylation level of CREB (CREB) | MITF protein expression level (MITF) | gene expression of PPARγ (PPARγ) | level of triglycerides accumulated in cells [4] | effect of reducing body fat ([1]; background statement on anti-obesity drugs)
CC(C)CC(N(C)C)C1(c2ccc(Cl)cc2)CCC1 (stereo not shown) [Reductil] | cardiovascular diseases, such as stroke and myocardial infarction | 5-10% |  |  |  |  |  |  |  |  | 
NH2-Tyr-Cys-Arg-Phe-Phe-Asn-Ala-Phe-Cys-COOH (H-YCRFFNAFC-OH; disulfide 2-9 (inferred)) [SEQ ID NO: 2] |  |  | increased compared with a control | reduced compared with a control | increased compared with a control | increased compared with a control | increased | increased | reduced compared with a control | reduced in a concentration-dependent manner | 
Cn1c(=O)c2[nH]cnc2n(C)c1=O [aminophylline] | broad side effects throughout the mental nervous system, circulatory system, and digestive system |  |  |  |  |  |  |  |  |  | excellent effect of reducing body fat
CCCCCCCCCCC[C@@H](C[C@@H]1OC(=O)[C@H]1CCCCCC)OC(=O)[C@H](CC(C)C)NC=O [Xenical] | frequent diarrhea | 2-3% |  |  |  |  |  |  |  |  | 
NH2-Gln-Cys-Arg-Phe-Phe-Arg-Ser-Ala-Cys-COOH (H-QCRFFRSAC-OH; cysteine pairing not given here) [SEQ ID NO: 1] |  |  | increased compared with a control | reduced compared with a control | increased compared with a control | increased compared with a control | increased | increased | reduced compared with a control | reduced in a concentration-dependent manner | 
